Results: US20090264664A1, “PREPARATION FOR EXTERNAL APPLICATION COMPRISING SALT OF MAST CELL DEGRANULATION INHIBITOR HAVING CARBOXYL GROUP WITH ORGANIC AMINE” (MEDRX CO., LTD., priority 2005, published 2009)

Assay: Solubility of tranilast in various solvents with or without triisopropanolamine (Example 3)
Assay type: physicochemical
Design: key: ∘: complete dissolution of tranilast; x: no dissolution of tranilast
Settings: tranilast 1 wt %
Procedure: For preparation of test solutions (blending corresponding to 1 mol of triisopropanolamine), tranilast (1 wt %) and triisopropanolamine (0.56 wt %) were added, and glycerol, propylene glycol, butylene glycol, salicylic acid ethylene glycol, diethyl sebacate and isopropyl myristate were used as a balance to achieve 100 wt %, whereby each test solution was prepared.
For preparation of comparison control (without triisopropanolamine), tranilast (1 wt %) was added, and propylene glycol, salicylic acid ethylene glycol, diethyl sebacate and isopropyl myristate were used as a balance to achieve 100 wt %, whereby each test solution was prepared.
Using the test solutions and comparative controls prepared above, the solubility of tranilast in various solvents with or without triisopropanolamine was examined.

## CC(O)CN(CC(C)O)CC(C)O.COc1ccc(/C=C/C(=O)Nc2ccccc2C(=O)O)cc1OC [1:1 salt with triisopropanolamine]
Butylene glycol
  solubility of tranilast in solvent: ∘
Diethyl sebacate
  solubility of tranilast in solvent: ∘
glycerol
  solubility of tranilast in solvent: ∘
Isopropyl myristate
  solubility of tranilast in solvent: x
Propylene glycol
  solubility of tranilast in solvent: ∘
Salicyl acid ethylene glycol
  solubility of tranilast in solvent: ∘
